Source: ChEMBL document CHEMBL1128049, “5-cyano-1-[3-(N-methylpyrrolidin-2R-ylmethyl)indol-5-yl] benzimidazole (CP-161,242): A potent, centrally active 5-HT1D receptor agonist and benzodiazepine partial agonist” (Bioorg Med Chem Lett, 1995)

Columns and labels:
[1] = target: 5-hydroxytryptamine receptor 1D (Cavia porcellus, UniProt Q60484); test: Compound was tested for the inhibition of forskolin-stimulated adenylate cyclase at 5-hydroxytryptamine 1D receptor in guinea pig substantia nigra
[2] = target: T1, 5-hydroxytryptamine receptor 1A (Rattus norvegicus, UniProt P19327); test: Tested in vitro for receptor binding affinity to 5-hydroxytryptamine 1A receptor in rat cortex using [3H]OH-DPAT radioligand
T1 sequence (P19327 whole entry): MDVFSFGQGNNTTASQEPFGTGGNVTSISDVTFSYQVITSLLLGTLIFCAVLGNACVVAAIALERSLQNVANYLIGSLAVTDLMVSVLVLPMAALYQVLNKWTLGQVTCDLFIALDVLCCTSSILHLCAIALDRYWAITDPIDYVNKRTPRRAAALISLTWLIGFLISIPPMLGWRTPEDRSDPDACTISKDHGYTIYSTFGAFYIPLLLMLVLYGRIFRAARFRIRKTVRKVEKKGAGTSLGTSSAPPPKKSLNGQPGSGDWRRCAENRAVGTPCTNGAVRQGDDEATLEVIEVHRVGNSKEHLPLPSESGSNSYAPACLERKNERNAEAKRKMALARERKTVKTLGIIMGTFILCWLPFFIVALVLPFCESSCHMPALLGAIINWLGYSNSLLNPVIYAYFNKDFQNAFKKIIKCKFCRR

[3] = target: GABA-A receptor; anion channel; test: In vitro displacement of [3H]flunitrazepam from GABA-A central benzodiazepine receptor of guinea pig cerebellum; type: tissue-based, Cavia porcellus

5-hydroxytryptamine receptor 1D, sequence (Q60484 whole entry): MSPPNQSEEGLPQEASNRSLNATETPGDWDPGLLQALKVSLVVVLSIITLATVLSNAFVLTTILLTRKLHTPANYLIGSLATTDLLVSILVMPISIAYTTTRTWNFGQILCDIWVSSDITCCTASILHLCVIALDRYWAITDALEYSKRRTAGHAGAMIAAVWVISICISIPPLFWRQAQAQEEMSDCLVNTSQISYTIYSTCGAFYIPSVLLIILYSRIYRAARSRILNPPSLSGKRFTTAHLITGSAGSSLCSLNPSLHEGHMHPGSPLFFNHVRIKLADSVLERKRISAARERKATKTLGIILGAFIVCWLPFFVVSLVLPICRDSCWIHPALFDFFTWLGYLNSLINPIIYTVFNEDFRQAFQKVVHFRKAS

SMILES: CN1CCC[C@@H]1Cc1c[nH]c2ccc(-n3cnc4cc(C#N)ccc43)cc12
- EC50 [1]: 0.042 nM
- IC50 [2]: 20 nM
- IC50 [3]: 3.3 nM

SMILES: CN(C)CCc1c[nH]c2ccc(-n3cnc4cccnc43)cc12
- EC50 [1]: 14 nM
- IC50 [2]: 210 nM
- IC50 [3]: 89 nM

SMILES: NCCc1c[nH]c2ccc(O)cc12 [SEROTONIN]
- EC50 [1]: 8.5 nM
